Here are results for 14 compounds from US20120201908A1, “METHOD OF TREATING BIPOLAR DISORDER OR DEPRESSION USING AN ANTIESTROGEN” (Lunera Equities, LLLP, priority 2009, published 2012).

“Also recorded” adds a separate entry of the source. Where a name gives a salt, the structure may show the parent alone. Read-outs that look alike come from different tables or passages of the source.

Series [1] concerns symptoms of bipolar disorder (bipolar I). In words: Pilot study Subject D: tamoxifen citrate added to bipolar medication, mood charts and psychiatrist visits. It is filed as in vivo, human. An excerpt:
Subject D is a person with a family history of bipolar disorder. Although Subject D had symptoms spanning Asperger's Syndrome, Bipolar I, Obsessive-Compulsive Disorder, Oppositional Defiant Disorder and anti-social traits, bipolar I was the diagnosis for several reasons, including the fact that it was present on both sides of the family and the symptoms were better suited to a bipolar diagnosis.
First visit: Day 1. Due to Subject D's extreme condition, past hospitalizations and the complicated mixture of medications, the psychiatrist spent approximately one hour with the subject. […] Subject D was also given a copy of the Gary Sach's Mood Chart for the subject and their parent to be filled out daily for the psychiatrist's weekly review.

The subject of series [2] is symptoms of bipolar disorder (bipolar disorder I). As to conditions: human, in vivo.
Protocol: (§1) The following list describes the drugs that were tried in combination with Eskalith: • 1. Depakote® (Divalproex Sodium Delayed Release Tablets) 50 mg daily. […] Tegretol XR® (Carbamazepine) 200 mg twice daily. […] Risperdal® (Risperidone) 3 mg per day. […] Prozac® (Olanzapine and Fluoxetine hydrochloride) 20 mg twice daily. […] Klonopin® (Clonazepam): originally from 2002 to 2009 was 8 mg to 10 mg daily for generalized anxiety. […] Lamictal® (Lamotrigine) Titration schedule over five weeks up to 250 mg twice daily.
Series [3] deals with symptoms of bipolar disorder. In words: Pilot study Subject E: tamoxifen citrate added to bipolar medication, mood charts and psychiatrist visits. It is filed as in vivo, human. An excerpt: Subject E is a person and an insulin dependent diabetic. Subject E was diagnosed with bipolar disorder at […]. They have had surgery in the past for their knees, their neck and stitches for their head. Subject E has been institutionalized multiple times within the last nine years for their own protection. To date, no medications have seemed to help. Subject also has a history of alcoholism. Some complexity was expected in treatment due to diabetes.

For series [4], the system named is symptoms of bipolar disorder (bipolar disorder II). Nature of the series: Case report Subject B: antiestrogen to treat symptoms of bipolar disorder. It is filed as in vivo, human. The protocol: Subject B is a person in good general physical health with a family history of bipolar disorder. Subject B underwent Cholecystectomy. Subject B was diagnosed with Meniere's Syndrome. Subject B was diagnosed with bipolar disorder II, at which time Lamictal was prescribed by a psychiatrist. […] The psychiatrist then prescribed Effexor XR® (venlafaxine hydrochloride) 75 mg/daily. […] A general physician prescribed 1.5 mg/Klonopin® (Clonazepam) daily.
Subject B also remained mentally alert and stable. […] Currently, Subject B remains stable and emotionally level.
Subject B's spouse states that Subject B is much more level, enjoys their life to a new degree, no longer loses control or becomes violent without warning. The entire family feels that life is much easier since Subject B began taking the antiestrogen.

The test system of series [5] is symptoms of acute/severe depression. In words: Case report Subject C: antiestrogen in descending daily dosing to treat acute/severe depression. The class given is in vivo, human. An excerpt: Subject C is a person in good general physical health with no previous history of mental illness or depression. Subject C was prescribed Dapsone as a child in order to treat to treat dermititis herpetiformis. Subject C received no medication in the past four years. In December 2008, Subject C became lethargic, uninterested in usually pleasurable activities, restless, and began oversleeping. After a full month, symptoms of depression became extreme and subject C was thought to be in danger of becoming suicidal.
Subject C's last dose was 2.5 mg on the fifth day.
Suicidal thoughts returned and Subject C considered dropping out of law school. Subject C started a descending dose course of Arimidex®; starting with a single dose of 1 mg on day one. Again, symptoms of depression faded noticeably within 8 hours, in a manner similar to that in response to treatment with tamoxifen. Subject C took single daily doses of Arimidex®; 0.5 mg on day two; 0.25 mg each on days three and four.

For series [6], the system named is symptoms of bipolar disorder (bipolar disorder I). In words: Case report Subject A: antiestrogen to treat symptoms of bipolar disorder. Particulars: for side effects / reason for discontinuation of earlier medication / effect of earlier medication on bipolar mood swings: medication history before the antiestrogen.
Protocol: as §1
Series [7] has as its system protein kinase C alpha and epsilon isozymes. Particulars: rat frontal cortex and hippocampus; Manji et al. 1999; cited from earlier work.

Regarding `Cc1ccc(-c2nc3ccc(C)cn3c2CC(=O)N(C)C)cc1` [Ambien], in series [1] (Day 95, Ambien sample for trial), the sleep entry is “helped their sleeping”. As for `C[C@]12C=CC(=O)C=C1CC[C@@H]1[C@@H]2C(=O)C[C@@]2(C)[C@H]1CC[C@]2(O)C(=O)CO` [Prednisone], the “side effects / reason for discontinuation of earlier medication” value (“side effects / reason” for short) in series [2] is “made all physical and mental conditions worse”. With `O=C1CCc2ccc(OCCCCN3CCN(c4cccc(Cl)c4Cl)CC3)cc2N1` [Abilify, Aripiprazole], the “mood after self-discontinuing Abilify” value in series [3] (Day 27, Abilify 5 mg qd not taken for 7 days) is “experienced some depression and mild anxiety and irritability”. Further, the “mood after resuming Abilify” value in series [3] (Day 34, Abilify 5 mg qd) is on record as “much better week”. For the compound `CC(C)(C#N)c1cc(Cn2cncn2)cc(C(C)(C)C#N)c1` [Arimidex, anastrozole], the “response when Arimidex replaces tamoxifen citrate” value in series [4] (Arimidex 0.25-1 mg used interchangeably with tamoxifen citrate 10 mg every other day) is reported as “without change in response; also recorded: work equally as well”. Besides, the “symptom-free period after the course” value in series [5] is listed as “After five months, Subject C remains free of symptoms of depression”. The “time to lessening of symptoms of depression after the first dose” value in series [5] (single dose on day one: tamoxifen citrate 20 mg or Arimidex 1 mg) was not above 8 h. For the same compound, in series [5] (tamoxifen citrate 20/10/5/2.5/2.5 mg days 1-5, Arimidex 1/0.5/0.25/0.25 mg days 1-4), the “symptoms of depression after the descending dose course” value is listed as “Symptoms of depression were substantially alleviated after day four”. Moreover, in series [6] (Arimidex 1 mg once a day, within a week of starting), the “severity of bipolar episodes and symptoms” value is “episodes and symptoms became less severe”. Besides, the “mood swings with the antiestrogen as only bipolar medication” value in series [6] (tamoxifen citrate 20 mg base equivalents or Arimidex 1 mg, once every day or every other day) is “controls mood swings without the concurrent use of other bipolar medication; also recorded: mood swings became virtually non-existent”. The “frequency of bipolar cycles” value in series [6] (while taking Arimidex 1 mg once a day) was “cycles were less frequent”.

As to `OCCOCCN1CCN(C2=Nc3ccccc3Sc3ccccc32)CC1` [Seroquel, quetiapine fumarate], the “side effects / reason” value in series [2] is “extreme tiredness and inability to function”. Take `CCCCCCCCCC(=O)O[C@H]1CC[C@H]2[C@@H]3CCC4=CC(=O)CC[C@@H]4[C@H]3CC[C@]12C` [Nandrolone deconate]: the “side effects / reason” value in series [6] is recorded as “Erythrocytosis”. On to `Cc1nc2n(c(=O)c1CCN1CCC(c3noc4cc(F)ccc34)CC1)CCCC2` [Risperdal, Risperidone], for which the “side effects / reason” value in series [2] is listed as “inability to work or function to a satisfactory level”.

On to `NC(=O)N1c2ccccc2C=Cc2ccccc21` [Tegretol XR, Carbamazepine], for which the “side effects / reason” value in series [2] is “hand and body tremors, as well as slurring of speech and numb feeling tongue”. The “effect of earlier medication on bipolar mood swings” value (“effect of earlier medication” for short) in series [6] is given as “Worked for a few weeks”.

Regarding `O=C([O-])[O-].[Li+].[Li+]` [Eskalith, Lithium Carbonate], the “protein kinase C alpha and epsilon isozymes” value in series [7] is “reduction in protein kinase C alpha and epsilon isozymes”. Besides, in series [6], the “effect of earlier medication” value is recorded as “slowed the swings, but did not change the severity of either the depressive or manic episodes” and the “side effects / reason” value is reported as “damage to the thyroid”.

Take `CC(NC(C)(C)C)C(=O)c1cccc(Cl)c1` (centres unmarked) [Wellbutrin, bupropion hydrochloride]: the “side effects / reason” value in series [2] was “dulled their mind and slowed their thinking”. `COc1ccc(C(CN(C)C)C2(O)CCCCC2)cc1` (centres unmarked) [Effexor XR, venlafaxine hydrochloride]: in series [4] (Lamictal 10-12 weeks, Effexor XR 75 mg/daily for three days), the “side effects / reason” value is “lack of sleep, extreme mania, high anxiety and hyperactivity”. With `CC1=C(/C=C/C(C)=C/C=C/C(C)=C\C(=O)O)C(C)(C)CCC1` [Accutane], the “depression under Accutane” value in series [1] (Day 95, Accutane 30 mg qd with tamoxifen citrate 30 mg qd) is “still shows no signs of depression”. On to `CCCC(CCC)C(=O)O` [Depakote, Divalproex Sodium], for which the “side effects / reason” value in series [2] is listed as “heavy side effects”. Besides, the “protein kinase C alpha and epsilon isozymes” value in series [7] is “reduction in protein kinase C alpha and epsilon isozymes”.

Take `CN(C)CCCN1c2ccccc2CCc2ccccc21` [Imipramine hydrochloride]: the “side effects / reason” value in series [2] is listed as “extreme hand tremors”. In series [6], the “effect of earlier medication” value was “continued to have bipolar swings”.
